How the values were obtained:
[1] = biological target: T1, human androgen receptor (hAR) (Homo sapiens, UniProt P10275); test: Competitive binding analysis on baculovirus/Sf9 generated hAR extracts with 3H-DHT tracer; details: AR Binding IC50 (nM), hAR extract, 1 nM 3H-DHT, one hour at 4° C; mean of multiple tests
T1 construct: made in house; host or cells: baculovirus/Sf9 insect cells (crude extract)
T1 sequence (P10275 1-920): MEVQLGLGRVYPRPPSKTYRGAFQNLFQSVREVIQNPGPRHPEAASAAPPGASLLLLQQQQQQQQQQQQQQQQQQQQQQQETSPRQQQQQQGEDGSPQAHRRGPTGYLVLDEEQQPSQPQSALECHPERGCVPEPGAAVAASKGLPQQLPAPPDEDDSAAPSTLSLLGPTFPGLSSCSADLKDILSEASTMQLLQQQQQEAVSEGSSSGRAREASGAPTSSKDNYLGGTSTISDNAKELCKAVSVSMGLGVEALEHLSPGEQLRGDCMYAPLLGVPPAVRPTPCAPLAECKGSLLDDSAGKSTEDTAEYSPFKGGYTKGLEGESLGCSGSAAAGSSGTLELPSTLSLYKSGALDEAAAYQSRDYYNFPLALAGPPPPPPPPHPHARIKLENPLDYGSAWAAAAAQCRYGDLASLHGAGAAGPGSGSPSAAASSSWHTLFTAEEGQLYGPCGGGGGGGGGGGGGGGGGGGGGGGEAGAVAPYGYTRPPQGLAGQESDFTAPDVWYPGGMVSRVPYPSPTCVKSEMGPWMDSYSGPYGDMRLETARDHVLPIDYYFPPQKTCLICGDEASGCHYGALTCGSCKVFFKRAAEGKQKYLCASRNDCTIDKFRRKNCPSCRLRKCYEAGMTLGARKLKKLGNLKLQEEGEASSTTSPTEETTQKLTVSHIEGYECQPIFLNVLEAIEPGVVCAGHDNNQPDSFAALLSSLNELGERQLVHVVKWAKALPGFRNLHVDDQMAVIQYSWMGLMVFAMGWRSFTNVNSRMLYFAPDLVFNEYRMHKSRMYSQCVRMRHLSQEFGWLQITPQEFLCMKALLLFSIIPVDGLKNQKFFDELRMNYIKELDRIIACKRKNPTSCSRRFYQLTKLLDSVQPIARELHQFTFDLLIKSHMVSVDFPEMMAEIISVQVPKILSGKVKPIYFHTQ
How it was run: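 Baculovirus/Sf9-expressed hAR extract incubated with hydroxylapatite, 1 nM 3H-DHT and decreasing compound concentrations for 1 h at 4 °C, then washed three times to remove unbound tracer. Bound 3H-DHT compared with no-competitor maximum; affinity given as concentration inhibiting half of maximum binding, mean of multiple tests.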

male C3H/HeN mice = test: Modified telogen conversion assay (animal model for androgenetic alopecia); format: in vivo, mouse; details: 3 w/v % topical, twice daily for 4 weeks
From the text: It has been discovered that male C3H/HeN mice may be used in the telogen conversion assay, when evaluating anti-androgen test compounds. Thus, the model relates to a modification of the existing telogen conversion assay. Male C3H/HeN mice approximately 7 weeks old are utilized. These animals are also uniformly in telogen, like their female counterparts. However, once shaven, the androgens inherently present in these male mice inhibit the conversion of the hair follicles to the anagen phase. An anti-androgen will block this androgenic effect and the follicles will convert to anagen, like their female counterparts.
The compound described in Example 1 was submitted for further testing utilizing the modified telogen conversion assay, described above. The testing was carried out in the following manner.
Male C3H/HeN mice, 6 to 7 weeks old (Charles River Laboratories, Raleigh, N.C.) were used for the study. Fur was clipped from the dorsal region of the mice prior to initiation of the study. Only mice with pink skin, a visual indication of the telogen phase, were selected for inclusion in the study. […]
The treatment area was observed and graded every other day for signs of hair growth. The hair growth response was quantified by recording, for each animal, the day on which signs of hair growth first appeared over the treated area. […]

SMILES | IC50 [1] [nM] | Induction of anagen (first signs of hair growth) versus vehicle control (male C3H/HeN mice)
CC(C)CC(Oc1ccc(C#N)c(C(F)(F)F)c1)C(=O)NCc1ccccc1 (stereo not drawn) [Example 1, 2-(4-Cyano-3-trifluoromethyl-phenoxy)-4-methyl-pentanoic acid benzylamide] | 95 | 
CCCC(Oc1ccc(C#N)c(C(F)(F)F)c1)C(=O)NCc1ccccc1 (stereo not drawn) [Example 4, 2-(4-Cyano-3-trifluoromethyl-phenoxy)-pentanoic acid benzylamide] | 445 | Anagen did not occur in the test group prior to its initiation in the vehicle control group

From US7507860B2 (Pfizer Inc., priority 2004, dated 2009)
